# Source: US20210177722A1, “Phytic Acid Ester Derivative” (NATIONAL UNIVERSITY CORPORATION KUMAMOTO UNIVERSITY, priority 2018, published 2021)
# How the values were obtained:
# [1] = test system: M8166 cell (human T-lymphoblastoid cell); assay: MTT assay, M8166 cell; type: cell-based
# Protocol: In this example, the cytotoxic effect of Pro-IP6 on four types of blood cancer cell lines and a cell derived from a healthy person was examined by MTT assay. […] It is possible to check viability of cultured cells by MTT assay. Cancer cell lines (1.74×10^4 cells/well, culture fluid: 200 μL) • MT-2 cell (HTLV transformed human T cell leukemia cell) • […] cell (human T-lymphoblastoid cell) • Jurkat cell (human T-lymphocyte cell) • K562 cell (chronic myelogenous leukemia cell) Each of the above-described types of cells was seeded in a 96-well plate, and was cultured for 8 hours for each of the various cancer cell lines and for 16 hours for PMBC. Thereafter, DMSO (1%, Fujifilm Wako Pure Chemical Corporation), an aqueous solution (1%) of IP6 (final concentration: 1 μM or 10 μM, Sigma Aldrich), or a DMSO solution (1%) of Pro-IP6 (final concentration: 1 μM or 10 μM) was added thereto, followed by culturing for 8 hours or 24 hours. An MTT reagent (Dojindo Laboratories, 1.1 mg/mL) was added in an amount of 50 μL per well, and the resultant was cultured for another 4 hours. The thus precipitated crystal was collected, a supernatant was removed, and 100 μL of DMSO was added thereto to completely dissolve. The resultant solution was measured for an absorbance (550 nm).
# [2] = test system: S1T cell (ATL cell line) tumor; assay: Effect on HTLV-1 infected cell-transplanted mouse (ATL model); type: in vivo; conditions: day 28 after transplantation, 20 mg/kg per day intraperitoneally for 28 days, NSG mice with S1T cells
# Description: In this example, the in vivo effect of Pro-IP6 on an HTLV-1 infected cell-transplanted mouse was checked. HTLV-1 (human T cell leukemia virus 1) mainly infects CD4-positive T lymphocyte, and when the infected cell cancerates, refractory malignant tumor, adult T-cell leukemia (ATL) is caused. In this example, S1T cell, that is, one of ATL cell lines, was used.
# 5-Week-old female NSG mice (NOD. Cg-Prkdc scid I12rg tm1Wjl/SzJ, Charles River Laboratories Japan, Inc.) were used. Five mice each in each of two cages, namely, ten mice in total, were raised with sterilized bedding (Pepar Clean: Japan SLC, Inc.) placed in a sterilized cage (Clea Japan, Inc.). […]
# The control group was dosed with DMSO, and the IP6 administration group and the pro-IP6 administration group were intraperitoneally dosed respectively with IP6 in an amount of 7.1 mg/kg and pro-IP6 in an amount of 20 mg/kg. The mice were dosed continuously for 28 days after the day of the cell transplantation, and the weight and the tumor volume of each mouse were measured every day. The tumor volume was defined as (shorter diameter in mm)^2×(longer diameter in mm)×0.5, and the shorter diameter and the longer diameter were measured with a caliper. […] Subsequently, the tumor was totally removed, and the tumor volume and the tumor weight of each tumor were measured.
# TRAF6 = assay: Western blotting (2), anti-TRAF6 antibody, Jurkat cell; type: cell-based, human; conditions: 1 μM or 10 μM, 8 hours or 24 hours
# Protocol: In this example, in the same manner as in Example 4, the action mechanism for killing cells by Pro-IP6 was checked by Wester blotting using a Jurkat cell and various antibodies. Jurkat cells (1×10^5 cells/well, culture fluid: 500 μL) were seeded in a 24-well plate to be cultured overnight. Thereafter, DMSO (1%, Fujifilm Wako Pure Chemical Corporation), an aqueous solution (1%) of IP6 (final concentration 10 μM, Sigma Aldrich), or a DMSO solution (1%) of Pro-IP6 (final concentration: 1 μM or 10 μM) was added thereto, followed by culturing for 8 hours or 24 hours. A supernatant was removed, the resultant was washed with 1× PBS (−) once, Laemmli sample buffer was added thereto, and the resultant was boiled at 100° C. for […] to dissolve the cells. The resultant was subjected to electrophoresis and then transferred onto a membrane (Millipore). […] Detection was performed using ImmunoStar LD (Fujfilm Wako Pure Chemical Corporation).
# PARP-1 = assay: Western blotting (1), anti-PARP-1 antibody, Jurkat cell; type: cell-based, human; conditions: 10 μM
# Protocol: In this example, the action mechanism for killing cells by Pro-IP6 was studied by Wester blotting using a Jurkat cell and various antibodies. Jurkat cells (1×10^5 cells/well, culture fluid: 500 μL) were seeded in a 24-well plate to be cultured overnight. Thereafter, DMSO (1%, Fujifilm Wako Pure Chemical Corporation), an aqueous solution (1%) of IP6 (final concentration: 10 μM, Sigma Aldrich), or a DMSO solution (1%) of Pro-IP6 (final concentration: 1 μM or 10 μM) was added thereto, followed by culturing for 8 hours or 24 hours. A supernatant was removed, the resultant was washed with 1× PBS (−) once, Laemmli sample buffer was added thereto, and the resultant was boiled at 100° C. for 1 hour to dissolve the cells. […] Detection was performed using ImmunoStar LD (Fujifilm Wako Pure Chemical Corporation).
compound,measurement,setting,value
"CCCC(=O)OCOP(=O)(OCOC(=O)CCC)O[C@H]1[C@H](OP(=O)(OCOC(=O)CCC)OCOC(=O)CCC)[C@@H](OP(=O)(OCOC(=O)CCC)OCOC(=O)CCC)[C@H](OP(=O)(OCOC(=O)CCC)OCOC(=O)CCC)[C@@H](OP(=O)(OCOC(=O)CCC)OCOC(=O)CCC)[C@H]1OP(=O)(OCOC(=O)CCC)OCOC(=O)CCC [Pro-IP6, myo-inositol hexaphosphate dodecakis(butyryloxymethyl) ester]",cytotoxic effect at 10 μM,[1],most of the cells were killed
same,lowering of relative cell viability,"[1]; M8166 cell, 1 μM or 10 μM, 8 hours or 24 hours",≥ 25%
same,tumor volume smaller as compared with that of the control group,[2],about 25%
same,expression of TRAF6,TRAF6,inhibits expression of TRAF6
same,cleavage of PARP-1 (induction of apoptosis),PARP-1,cleavage of PARP-1 and Caspase-3 was observed
